Assay results published in US9695129B2, “Parasiticidal compositions comprising benzimidazole derivatives, methods and uses thereof” (MERIAL INC., priority 2012, dated 2017).

System: adult F. hepatica
Experiment: In vitro test on adult F. hepatica (viability scale, effective concentration)
Parameters: species or system Fasciola hepatica
Conditions: Fasciola hepatica, 72 h, read-out: Effective in vitro concentration
Protocol: Representative compounds of formula (I), formula (II), and formula (III) were tested in vitro against F. hepatica as follows. Adult F. hepatica (fluke) were collected from infected bovine livers obtained from a local abattoir (Basel, Switzerland). The worms were quickly washed with 0.9% (w/v) NaCl and placed in 6 or 12-well plates (Costar). Culture medium in each well contained RPMI 1640 (Gibco) at 37° C., which was supplemented with antibiotics (50 μg/ml streptomycin and 50 IU/ml penicillin; Gibco) and 80 μg/ml of a haemin solution. The haemin solution was prepared as follows: 5 mg haemin was dissolved in 1 ml of 0.1M aqueous solution of NaOH, and 3.95 ml of PBS (pH=7.4) and 0.05 ml of 1M HCl were added to adjust the pH to 7.1-7.4 (Keiser and Morson, 2008). Cultures were kept at 37° C. in an atmosphere of 5% CO2. To monitor the temporal effects of test compounds in vitro, 3 flukes were incubated for 72 h in the presence of 50 or 100 μg/ml of each test compound. At 24, 48, and 72 h, worms were examined using a dissecting microscope. For the adult worms, a viability scale ranging from 4 (normal movements) to 1 (death; no movement observed for two min using a microscope) was used.
(§1) Table 1 lists representative compounds of formula (I) of the present invention and their effective in vitro concentrations against F. hepatica. All compounds were tested in vitro on the adult stage of F. hepatica as described above. Each data point refers to at least two independent experiments. For Table 1, R2 is H, R4 is Cl and R5 is H.
as §1, with “2” for “1”, “(II)” for “(I)”, “2 compounds, the 2-position of the benzimidazole ring” for “1, R2”, “methylthio, R6” for “H, R4”, “H” for “Cl”, “R9” for “R5”
as §1, with “3” for “1”, “(III)” for “(I)”, “3, the 2-position of the benzimidazole ring” for “1, R2”, “trifluoromethylthio, R10” for “H, R4”, “H” for “Cl”, “R13” for “R5”

Row | Compound | minimal effective concentration [µg/mL]
1 | FC(F)(F)Sc1nc2cc(Cl)c(-c3ccc(Cl)cc3)cc2[nH]1 [Compound 102, 6-chloro-5-(4-chlorophenyl)-2-trifluoromethylthiobenzimidazole] | 5
2 | FC(F)(F)Sc1nc2cc(Cl)c(-c3cccc(Cl)c3)cc2[nH]1 [Compound 103, 6-chloro-5-(3-chlorophenyl)-2-trifluoromethylthiobenzimidazole] | 5
3 | FC(F)(F)c1nc2cc(Cl)c(-c3cc(Cl)cc(Cl)c3)cc2[nH]1 [Compound 247, 6-chloro-5-(3,5-dichlorophenyl)-2-trifluoromethylbenzimidazole] | 5
4 | FC(F)(F)c1nc2cc(Cl)c(-c3cc(Cl)cc(Cl)c3Cl)cc2[nH]1 [Compound 261, 6-chloro-5-(2,3,5-trichlorophenyl)-2-trifluoromethylbenzimidazole] | 5
5 | Fc1ccc(Oc2cc3[nH]c(C(F)(F)C(F)(F)C(F)(F)F)nc3cc2Cl)c(F)c1 [Compound 279, 5-chloro-6-(2,4-difluorophenoxy)-2-(heptafluoropropyl)-1H-1,3-benzodiazole] | < 5
6 | Fc1ccc(Oc2cc3[nH]c(C(F)(F)C(F)(F)C(F)(F)F)nc3cc2Cl)cc1 [Compound 284, 5-chloro-6-(4-fluorophenoxy)-2-(heptafluoropropyl)-1H-1,3-benzodiazole] | 5

Same assay, conditions: Fasciola hepatica; Table 1, formula (I); adult flukes incubated up to 72 h; at least two independent experiments; read-out: Effective in vitro concentration

Row | Compound | minimal effective concentration [µg/mL]
7 | FC(F)(F)c1nc2cc(Cl)c(-c3ccc(Cl)c(Cl)c3)cc2[nH]1 [Compound 258, 6-chloro-5-(3,4-dichlorophenyl)-2-trifluoromethylbenzimidazole] | 5
8 | FC(F)(F)c1nc2cc(Cl)c(-c3ccc(Cl)cc3Cl)cc2[nH]1 [Compound 260, 6-chloro-5-(2,4-dichlorophenyl)-2-trifluoromethylbenzimidazole] | 5
9 | FC(F)(F)C(F)(F)c1nc2cc(Cl)c(-c3cccc(Cl)c3Cl)cc2[nH]1 [Compound 262-100, 5-chloro-6-(2,3-dichlorophenyl)-2-(pentafluoroethyl)-1H-1,3-benzodiazole] | 10
10 | FC(F)(F)c1nc2cc(Cl)c(Oc3ccc(Cl)cc3Cl)cc2[nH]1 [Compound 275, 5-chloro-6-(2,4-dichlorophenoxy)-2-(trifluoromethyl)-1H-1,3-benzodiazole] | 10
11 | FC(F)(F)C(F)(F)c1nc2cc(Cl)c(Oc3ccc(Cl)cc3Cl)cc2[nH]1 [Compound 276, 5-chloro-6-(2,4-dichlorophenoxy)-2-(pentafluoroethyl)-1H-1,3-benzodiazole] | < 5
12 | Fc1ccc(Oc2cc3[nH]c(C(F)(F)F)nc3cc2Cl)c(F)c1 [Compound 277, 5-chloro-6-(2,4-difluorophenoxy)-2-(trifluoromethyl)-1H-1,3-benzodiazole] | 10
13 | Fc1ccc(Oc2cc3[nH]c(C(F)(F)C(F)(F)F)nc3cc2Cl)c(F)c1 [Compound 278, 5-chloro-6-(2,4-difluorophenoxy)-2-(pentafluoroethyl)-1H-1,3-benzodiazole] | < 5
14 | Fc1ccc(-c2cc3[nH]c(C(F)(F)F)nc3cc2Cl)cc1 [Compound 280, 5-chloro-6-(4-fluorophenyl)-2-(trifluoromethyl)-1H-1,3-benzodiazole] | 20
15 | Fc1ccc(-c2cc3[nH]c(C(F)(F)C(F)(F)F)nc3cc2Cl)cc1 [Compound 281, 5-chloro-6-(4-fluorophenyl)-2-(pentafluoroethyl)-1H-1,3-benzodiazole] | 5
16 | Fc1ccc(Oc2cc3[nH]c(C(F)(F)C(F)(F)F)nc3cc2Cl)cc1 [Compound 283, 5-chloro-6-(4-fluorophenoxy)-2-(pentafluoroethyl)-1H-1,3-benzodiazole] | < 2.5
17 | FC(F)(F)c1ccc(Oc2cc3[nH]c(C(F)(F)F)nc3cc2Cl)cc1 [Compound 286, 5-chloro-2-(trifluoromethyl)-6-[4-(trifluoromethyl)phenoxy]-1H-1,3-benzodiazole] | 20
18 | FC(F)(F)c1ccc(Oc2cc3[nH]c(C(F)(F)C(F)(F)F)nc3cc2Cl)cc1 [Compound 287, 5-chloro-2-(pentafluoroethyl)-6-[4-(trifluoromethyl)phenoxy]-1H-1,3-benzodiazole] | 50
19 | FC(F)(F)c1ccc(Oc2cc3[nH]c(C(F)(F)C(F)(F)C(F)(F)F)nc3cc2Cl)cc1 [Compound 288, 5-chloro-2-(heptafluoropropyl)-6-[4-(trifluoromethyl)phenoxy]-1H-1,3-benzodiazole] | 20
20 | FC(F)(F)c1ccc(-c2cc3[nH]c(C(F)(F)C(F)(F)F)nc3cc2Cl)cc1 [Compound 289, 5-chloro-2-(pentafluoroethyl)-6-[4-(trifluoromethyl)phenyl]-1H-1,3-benzodiazole] | < 2.5
21 | FC(F)(F)c1ccc(Oc2cc3[nH]c(C(F)(F)C(F)(F)F)nc3cc2Cl)c(Cl)c1 [Compound 296, 5-chloro-6-[2-chloro-4-(trifluoromethyl)phenoxy]-2-(pentafluoroethyl)-1H-1,3-benzodiazole] | < 2.5
22 | FC(F)(F)c1ccc(-c2cc3[nH]c(C(F)(F)F)nc3cc2Cl)c(C(F)(F)F)c1 [Compound 301, 6-[2,4-bis(trifluoromethyl)phenyl]-5-chloro-2-(trifluoromethyl)-1H-1,3-benzodiazole] | < 10
23 | FC(F)(F)c1ccc(-c2cc3[nH]c(C(F)(F)C(F)(F)F)nc3cc2Cl)c(C(F)(F)F)c1 [Compound 302, 6-[2,4-bis(trifluoromethyl)phenyl]-5-chloro-2-(pentafluoroethyl)-1H-1,3-benzodiazole] | < 2.5
24 | FC(F)(F)c1nc2cc(Cl)c(-c3ccc(Cl)cc3C(F)(F)F)cc2[nH]1 [Compound 304, 5-chloro-6-[4-chloro-2-(trifluoromethyl)phenyl]-2-(trifluoromethyl)-1H-1,3-benzodiazole] | 20
25 | FC(F)(F)c1cc(Cl)ccc1-c1cc2[nH]c(C(F)(F)C(F)(F)F)nc2cc1Cl [Compound 305, 5-chloro-6-[4-chloro-2-(trifluoromethyl)phenyl]-2-(pentafluoroethyl)-1H-1,3-benzodiazole] | 20
26 | FC(F)(F)c1cc(Cl)ccc1-c1cc2[nH]c(C(F)(F)C(F)(F)C(F)(F)F)nc2cc1Cl [Compound 306, 5-chloro-6-[4-chloro-2-(trifluoromethyl)phenyl]-2-(heptafluoropropyl)-1H-1,3-benzodiazole] | 20
27 | FC(F)(F)c1ccc(-c2cc3[nH]c(C(F)(F)F)nc3cc2Cl)c(Cl)c1 [Compound 307, 5-chloro-6-[2-chloro-4-(trifluoromethyl)phenyl]-2-(trifluoromethyl)-1H-1,3-benzodiazole] | < 2.5
28 | FC(F)(F)c1ccc(-c2cc3[nH]c(C(F)(F)C(F)(F)F)nc3cc2Cl)c(Cl)c1 [Compound 308, 5-chloro-6-[2-chloro-4-(trifluoromethyl)phenyl]-2-(pentafluoroethyl)-1H-1,3-benzodiazole] | < 10
29 | FC(F)(F)c1ccc(-c2cc3[nH]c(C(F)(F)C(F)(F)C(F)(F)F)nc3cc2Cl)c(Cl)c1 [Compound 309, 5-chloro-6-[2-chloro-4-(trifluoromethyl)phenyl]-2-(heptafluoropropyl)-1H-1,3-benzodiazole] | 20

Same assay, conditions: Fasciola hepatica; Table 2, formula (II); adult flukes incubated up to 72 h; at least two independent experiments; read-out: Effective in vitro concentration

Row | Compound | minimal effective concentration [µg/mL]
30 | CSc1nc2cc(Cl)c(Oc3ccccc3Br)cc2[nH]1 [Compound 014, 6-chloro-5-(2-bromophenoxy)-2-methylthiobenzimidazole] | 50
31 | CSc1nc2cc(Cl)c(Oc3cccc(C)c3C)cc2[nH]1 [Compound 019, 6-chloro-5-(2,3-dimethylphenoxy)-2-methylthiobenzimidazole] | 20
32 | CCCCCCc1cc2[nH]c(SC)nc2cc1Cl [Compound 024, 6-chloro-5-hexyl-2-methylthiobenzimidazole] | 50

Same assay, conditions: Fasciola hepatica; Table 3, formula (III); adult flukes incubated up to 72 h; at least two independent experiments; read-out: Effective in vitro concentration

Row | Compound | minimal effective concentration [µg/mL]
33 | FC(F)(F)Sc1nc2cc(Cl)c(Oc3cccc(Cl)c3Cl)cc2[nH]1 [Compound 049, 6-chloro-5-(2,3-dichlorophenoxy)-2-trifluoromethylthiobenzimidazole] | 10

Same assay, conditions: Table 3, formula (III); adult flukes incubated up to 72 h; at least two independent experiments

Row | Compound | Effective in vitro concentration [µg/mL]
34 | 6-chloro-5-(2-butyl)-cyclopropyl-2-trifluoromethylthiobenzimidazole [Compound 108] | 10
